Source: patent US20220387608A1, “ADRENOMEDULLIN-ANALOGUES FOR LONG-TERM STABILIZATION AND THEIR USE” (Bayer Aktiengesellschaft, priority 2019, published 2022)
Positions of bridges follow the written chain, without caps; N, C: chain ends. Non-standard residues stand in square brackets, D forms with d. Residues, ends and D or L forms follow the SMILES beside them. *: point of attachment. C18 diacid = O=C(O)CCCCCCCCCCCCCCCCC(=O)*; PEG4 = NCCOCCOCCOCCOCCC(=O)O; PEG3 = NCCOCCOCCOCCC(=O)O; Dap = NC[C@H](N)C(=O)O

Target: T1, AM1R (Homo sapiens, UniProt O60895+Q16602)
T1 construct: EYFP; ECFP; expressed in transfected cells; host or cells: HEK-293 (transient co-transfection)
Assay: Activity determination in vitro: cAMP/CRE-luciferase reporter assay in HEK293 cells transiently co-transfected with CLR and RAMP2
Format: cell-based
Details: for Emax: HEK293, normalized to [G14]ADM(14-52); for EC50: HEK293 with CLR/RAMP2, CRE-luciferase, 3 h stimulation
Method: (1a) Activity Determination of Adrenomedullin Analogues in vitro
Cell Culture HEK-293 cells (human embryonic kidney cells) were cultured in Ham's F-12/DMEM (1/1; v/v) containing 15% FCS under humidified atmosphere at 37° C. and 5% CO2 in 75 cm^2 cell culture flasks.
Cells were cultured in 75 cm^2 flasks to 70-80% confluency. 45 μl Metafectene® Pro was diluted in 900 ρl Ham's F-12/DMEM (1/1; v/v) and incubated for 20 min at room temperature. 9 μg plasmid containing DNA of CLR fused to EYFP and 3 μg plasmid containing DNA of RAMP2 fused to ECFP were dissolved in 900 μl Ham's F-12/DMEM (1/1; v/v). The plasmid solution was mixed with the Metafectene® Pro solution and incubated for 25 min at room temperature. Medium was removed from the cells and replaced by 6 m1 Ham's F-12/DMEM (1/1; v/v) containing 15% FCS. After addition of transfection solution the cells were incubated for 3 h under humidified atmosphere at 37° C. and 5% CO2. For the second transfection 45 μl Metafectene® Pro was diluted in 900 μl Ham's F-12/DMEM (1/1; v/v) and incubated for 20 min at room temperature. 12 μg of pGL4.29[Luc2P/CRE/Hygro] plasmid containing DNA for the luciferase reporter gene luc2P (with CRE promotor region) were dissolved in 900 μl Ham's F-12/DMEM (1/1; v/v). The plasmid solution was mixed with the Metafectene® Pro solution and incubated for 25 min at room temperature. Medium was removed from the cells and replaced by 6 m1 Ham's F-12/DMEM (1/1; v/v) containing 15% FCS. After addition of transfection solution, the cells were incubated under humidified atmosphere at 37° C. and 5% CO2 over night.
For coating of 96-well-plates, 50 μl of a poly-D-lysine solution in DPBS (0.1 mg/ml) were pipetted in each well and incubated for 40 min. After removal of poly-D-lysine, each well was washed with 50 μl DPBS. Transiently transfected cells were detached from the cell culture flask by removal of the medium, 2-fold washing with 5 m1 DPBS and resuspending in 40 m1 Ham's F-12/DMEM (1/1; v/v) containing 15% FCS. 90,000 to 120,000 cells in 150 μl Ham's F-12/DMEM (1/1; v/v) containing 15% FCS were seeded per well and the plates were incubated under humidified atmosphere at 37° C. and 5% CO2 over night.
For each ligand, a serial dilution with eight different concentrations was prepared using Ham's F^12/DMEM (1/1; v/v). Before stimulation, the medium on the cells was replaced by 100 μl Ham's F^12/DMEM (1/1; v/v) and the plates were incubated for 1 h under humidified atmosphere at 37° C. and 5% CO2. For stimulation, the medium was removed and the cells were incubated for 3 h in 80 μl of ligand-solution under humidified atmosphere at 37° C. and 5% CO2. In addition 80 μl of a 5 μM forskolin solution in Ham's F-12/DMEM (1/1; v/v) was used as a positive control and 80 μl of Ham's F-12/DMEM (1/1; v/v) as a negative control. Each concentration and the controls were tested as triplicates.
After 3 h of stimulation, the solutions were removed and the cells were washed with 50 μl of Ham's F-12/DMEM (1/1; v/v) perwell. After 10 m incubation in 30 μl of Ham's F-12/DMEM (1/1; v/v) at room temperature, 30 μl of luciferase-solution (ONE-Glo™ Luciferase Assay System) was added and the luminescence was directly measured using an Infinite M200 (Tecan).
Data analysis of the luminescence measurement was carried out with GraphPad Prism 5. Therefore, the measured luminescence values of each plate were first corrected on the base of the respective average of forskolin stimulation. Afterwards they were normalized to [G14]ADM(14-52), which was used as standard peptide in every assay. After correction and normalization, data was analyzed using non-linear regression giving dose-response curves for each tested ligand.

T1 sequence (Q16602 23-461): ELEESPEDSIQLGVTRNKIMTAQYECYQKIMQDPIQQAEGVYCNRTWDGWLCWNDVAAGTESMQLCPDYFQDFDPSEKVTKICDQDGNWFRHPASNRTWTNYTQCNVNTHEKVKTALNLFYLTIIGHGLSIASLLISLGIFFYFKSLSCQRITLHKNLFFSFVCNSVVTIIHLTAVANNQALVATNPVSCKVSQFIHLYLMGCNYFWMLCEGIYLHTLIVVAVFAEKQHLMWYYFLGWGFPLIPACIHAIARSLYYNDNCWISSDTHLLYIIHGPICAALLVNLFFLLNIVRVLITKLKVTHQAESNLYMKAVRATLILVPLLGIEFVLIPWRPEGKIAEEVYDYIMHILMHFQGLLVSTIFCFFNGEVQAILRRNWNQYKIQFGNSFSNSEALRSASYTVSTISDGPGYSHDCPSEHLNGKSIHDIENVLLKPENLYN
T1 sequence (O60895 43-175): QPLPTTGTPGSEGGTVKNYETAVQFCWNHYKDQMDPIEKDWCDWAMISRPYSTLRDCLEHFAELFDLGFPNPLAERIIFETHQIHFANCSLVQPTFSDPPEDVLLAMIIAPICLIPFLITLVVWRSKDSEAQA

Compound	Emax [%]	EC50 [nM]
CC[C@H](C)[C@H](NC(=O)[C@H](CCC(N)=O)NC(=O)[C@H](Cc1c[nH]cn1)NC(=O)[C@H](C)NC(=O)[C@H](CC(C)C)NC(=O)[C@H](CCCCN)NC(=O)[C@H](CCC(N)=O)NC(=O)[C@@H](NC(=O)[C@@H](NC(=O)[C@@H]1CSSC[C@H](NC(=O)CNC(=O)CN)C(=O)N[C@@H](CCCNC(=N)N)C(=O)N[C@@H](Cc2ccccc2)C(=O)NCC(=O)N[C@@H]([C@@H](C)O)C(=O)N1)[C@@H](C)O)C(C)C)C(=O)N[C@@H](Cc1ccc(O)cc1)C(=O)N[C@@H](CCC(N)=O)C(=O)N[C@@H](Cc1ccccc1)C(=O)N[C@H](C(=O)N[C@@H](CC(=O)O)C(=O)N[C@@H](CCCCN)C(=O)N[C@@H](CC(=O)O)C(=O)N[C@@H](CCCCN)C(=O)N[C@@H](CC(=O)O)C(=O)N[C@@H](CC(N)=O)C(=O)N[C@H](C(=O)N[C@@H](C)C(=O)N1CCC[C@H]1C(=O)N[C@H]1CC(=O)NCCCC[C@@H](C(=O)N2CCC[C@H]2C(=O)N[C@@H](CCC(N)=O)C(=O)NCC(=O)N[C@@H](Cc2ccc(O)cc2)C(N)=O)NC(=O)[C@H]([C@@H](C)CC)NC(=O)[C@H](CCCCN)NC(=O)[C@H](CO)NC1=O)C(C)C)[C@@H](C)O [Example 2, ((4R,7S,13S,16S,19R)-19-(2-(2-aminoacetamido)acetamido)-13-benzyl-16-(3-guanidinopropyl)-7-((R)-1-hydroxyethyl)-6,9,12,15,18-pentaoxo-1,2-dithia-5,8,11,14,17-pentaazacycloicosane-4-carbonyl)-L-threonyl-ADM(23-43)-((3S,6S,9S,12S,20S)-6-(4-aminobutyl)-12-(λ^2-azaneyl)-3-((S)-sec-butyl)-9-(hydroxymethyl)-2,5,8,11,14-pentaoxo-1,4,7,10,15-pentaazacycloicosane-20-carbonyl)-L-prolyl-ADM(50-52)] (H-GGCRFGTCTVQKLAHQIYQFTDKDKDNVAPDSKIKPQGY-NH2; disulfide 3-8; lactam 31-35)	91 ± 1	4.8
CC[C@H](C)[C@H](NC(=O)[C@H](CCC(N)=O)NC(=O)[C@H](Cc1c[nH]cn1)NC(=O)[C@H](C)NC(=O)[C@H](CC(C)C)NC(=O)[C@H](CCCCN)NC(=O)[C@H](CCC(N)=O)NC(=O)[C@@H](NC(=O)[C@@H](NC(=O)[C@@H]1CSSC[C@H](NC(=O)CNC(=O)CN)C(=O)N[C@@H](CCCNC(=N)N)C(=O)N[C@@H](Cc2ccccc2)C(=O)NCC(=O)N[C@@H]([C@@H](C)O)C(=O)N1)[C@@H](C)O)C(C)C)C(=O)N[C@@H](Cc1ccc(O)cc1)C(=O)N[C@@H](CCC(N)=O)C(=O)N[C@@H](Cc1ccccc1)C(=O)N[C@H](C(=O)NCCOCCOCCOCCOCCC(=O)N[C@@H](CC(N)=O)C(=O)N[C@H](C(=O)N[C@@H](C)C(=O)N1CCC[C@H]1C(=O)N[C@@H](CCCNC(=N)N)C(=O)N[C@@H](CO)C(=O)N[C@@H](CCCCN)C(=O)N[C@H](C(=O)N[C@@H](CO)C(=O)N1CCC[C@H]1C(=O)N[C@@H](CCC(N)=O)C(=O)NCC(=O)N[C@@H](Cc1ccc(O)cc1)C(N)=O)[C@@H](C)CC)C(C)C)[C@@H](C)O [Example 8, ((4R,7S,13S,16S,19R)-19-(2-(2-aminoacetamido)acetamido)-13-benzyl-16-(3-guanidinopropyl)-7-((R)-1-hydroxyethyl)-6,9,12,15,18-pentaoxo-1,2-dithia-5,8,11,14,17-pentaazacycloicosane-4-carbonyl)-L-threonyl-ADM(23-34)-(1-(λ^2-azaneyl)-3,6,9,12-tetraoxapentadecan-15-oyl)-L-asparagyl-ADM(41-52)] (H-GGCRFGTCTVQKLAHQIYQFT[PEG4]NVAPRSKISPQGY-NH2; disulfide 3-8)	95 ± 3	16
CC[C@H](C)[C@H](NC(=O)[C@H](CCC(N)=O)NC(=O)[C@H](Cc1c[nH]cn1)NC(=O)[C@H](C)NC(=O)[C@H](CC(C)C)NC(=O)[C@H](CCCCN)NC(=O)[C@H](CCC(N)=O)NC(=O)[C@@H](NC(=O)[C@@H](NC(=O)[C@@H]1CSSC[C@H](NC(=O)CNC(=O)CN)C(=O)N[C@@H](CCCNC(=N)N)C(=O)N[C@@H](Cc2ccccc2)C(=O)NCC(=O)N[C@@H]([C@@H](C)O)C(=O)N1)[C@@H](C)O)C(C)C)C(=O)N[C@@H](Cc1ccc(O)cc1)C(=O)N[C@@H](CCC(N)=O)C(=O)N[C@@H](Cc1ccccc1)C(=O)N[C@H](C(=O)N[C@@H](CC(=O)O)C(=O)NCCOCCOCCOCCC(=O)N[C@@H](CC(N)=O)C(=O)N[C@H](C(=O)N[C@@H](C)C(=O)N1CCC[C@H]1C(=O)N[C@@H](CCCNC(=N)N)C(=O)N[C@@H](CO)C(=O)N[C@@H](CCCCN)C(=O)N[C@H](C(=O)N[C@@H](CO)C(=O)N1CCC[C@H]1C(=O)N[C@@H](CCC(N)=O)C(=O)NCC(=O)N[C@@H](Cc1ccc(O)cc1)C(N)=O)[C@@H](C)CC)C(C)C)[C@@H](C)O [Example 9, ((4R,7S,13S,16S,19R)-19-(2-(2-aminoacetamido)acetamido)-13-benzyl-16-(3-guanidinopropyl)-7-((R)-1-hydroxyethyl)-6,9,12,15,18-pentaoxo-1,2-dithia-5,8,11,14,17-pentaazacycloicosane-4-carbonyl)-L-threonyl-ADM(23-35)-(3-(2-(2-(2-(λ^2-azaneyl)ethoxy)ethoxy)ethoxy)propanoyl)-L-asparagyl-ADM(41-52)] (H-GGCRFGTCTVQKLAHQIYQFTD[PEG3]NVAPRSKISPQGY-NH2; disulfide 3-8)	87 ± 4	49
CC[C@H](C)[C@H](NC(=O)[C@H](CCC(N)=O)NC(=O)[C@H](Cc1c[nH]cn1)NC(=O)[C@H](C)NC(=O)[C@H](CC(C)C)NC(=O)[C@H](CCCCN)NC(=O)[C@H](CCC(N)=O)NC(=O)[C@@H](NC(=O)[C@@H](NC(=O)[C@@H]1CCC(=O)NC[C@H](NC(=O)CNC(=O)[C@@H](N)CCCCNC(=O)CCCCCCCCCCCCCCCCC(=O)O)C(=O)N[C@@H](CCCNC(=N)N)C(=O)N[C@@H](Cc2ccccc2)C(=O)NCC(=O)N[C@@H]([C@@H](C)O)C(=O)N1)[C@@H](C)O)C(C)C)C(=O)N[C@@H](Cc1ccc(O)cc1)C(=O)N[C@@H](CCC(N)=O)C(=O)N[C@@H](Cc1ccccc1)C(=O)N[C@H](C(=O)N[C@@H](CC(=O)O)C(=O)N[C@@H](CCCCN)C(=O)N[C@@H](CC(=O)O)C(=O)N[C@@H](CCCCN)C(=O)N[C@@H](CC(=O)O)C(=O)N[C@@H](CC(N)=O)C(=O)N[C@H](C(=O)N[C@@H](C)C(=O)N1CCC[C@H]1C(=O)N[C@H]1CCCCNC(=O)C[C@@H](C(=O)N2CCC[C@H]2C(=O)N[C@@H](CCC(N)=O)C(=O)NCC(=O)N[C@@H](Cc2ccc(O)cc2)C(N)=O)NC(=O)[C@H]([C@@H](C)CC)NC(=O)[C@H](CCCCN)NC(=O)[C@H](CO)NC1=O)C(C)C)[C@@H](C)O [Example 16] (H-K(C18 diacid)G[Dap]RFGTETVQKLAHQIYQFTDKDKDNVAPKSKIDPQGY-NH2; lactam 3-8, 31-35)	100 ± 5	1.4
